Data set [1] can be described thus: β-carotene bleaching method (carotene-linoleic acid autoxidation). It counts as biochemical. The following applies: for BHT-Relative Antioxidant Ability (%) β-Carotene Method: sample concentration 5 μM, 50 minutes at 50° C., absorbance at 492 nm, relative to 5 μM BHT; for Antioxidant ability (β-carotene method) compared in words with BHT or Pro-His-His: 5 μM. From the text: (§1) The antioxidant action of a peptide may be determined by a known method such as DPPH method or β-carotene bleaching method (see, e.g., Chen, H M., Muramoto, K., Yamauchi, F., and Nokihara, K., J. Agric. Food Chem., 44, 2619-2623, 1996. Antioxidant Activity of Designed Peptides Based on the Antioxidative Peptide Isolated from Digests of a Soybean Protein). DPPH method is to measure radical scavenging ability using 1,1-diphenyl-2-picrylhydrazyl (DPPH). […] In addition, the level of an antioxidant action can be evaluated by the degree of decrease of absorbance. β-carotene bleaching method is to calculate antioxidant ability of an analyte by autoxidizing a mixture of β-carotene, linoleic acid and the analyte and measuring suppression of β-carotene oxidization. […] In addition, the level of an antioxidant action can be evaluated by the degree of decrease of absorbance. Such known evaluation methods as described above reflect a part of antioxidant mechanisms which act in a living body in parallel.
β-carotene was dissolved in chloroform to prepare 1 mg/mL solution. Linoleic acid was dissolved in chloroform to prepare 0.1 g/mL solution. Tween 40 was dissolved in chloroform to prepare 0.2 g/mL solution. Into 100 mL recovery flasks, 0.15 mL of β-carotene solution in chloroform, 0.1 mL of linoleic acid solution in chloroform, and 0.3 mL of Tween 40 solution in chloroform were aliquoted, and the mixed solution was evaporated to dryness with an evaporator until the smell of chloroform was completely disappeared. The dried mixture was dissolved in 30 mL of pure water, and 2.7 mL of 0.2 M phosphate buffer (pH 6.8) was further added thereto, followed by gentle stirring to prepare carotene-linoleic acid solution. Next, the peptides obtained in Example 1 were dissolved in ethanol to prepare 1 mL of 0.05 mM peptide solutions, respectively.
Thereafter, 0.45 mL of carotene-linoleic acid solution and 0.05 mL of undiluted sample solution were mixed and stirred (sample concentration: 5 μM), and the reaction was allowed to proceed for 50 minutes at 50° C. Five minutes and 50 minutes after the start of the reaction, the absorbance at OD 492 nm was measured with a UV-VIS spectrophotometer. For blanks, a blank solution was prepared using the same volume of distilled water instead of carotene-linoleic acid solution, and the absorbance of the blank solution was measured via the same reaction condition. For controls, a control solution was prepared using ethanol instead of sample solutions, and the absorbance of the control solution was measured via the same reaction condition.
The antioxidant ability was calculated according to the following formula.
Antioxidant ability(%)=[1-−A5S−A50S)/(A5C−A50C)]×100
A5C=The absorbance of the control after 5-minute reaction. A5S=The absorbance of the sample after 5-minute reaction. A50C=The absorbance of the control after 50-minute reaction. A50S=The absorbance of the sample after 50-minute reaction.
(§2) The BHT-relative antioxidant ability was calculated according to the following formula.
BHT-Relative Antioxidant Ability(%)=[AntOx(%)]/[5 μM BHT(%)]×100

Data set [2] is described as follows: DPPH radical scavenging ability. It is filed as biochemical. The following applies: for BHT-Relative Antioxidant Ability (%) DPPH Method: sample concentration 500 μM, 50 minutes at room temperature, absorbance at 517 nm, relative to 500 μM BHT; for Radical scavenging ability (DPPH) compared in words with BHT or Pro-His-His: 500 μM.
Text: as §1
Next, DPPH was dissolved in ethanol to prepare 10 mL of 0.1 mM DPPH-ethanol solution, and 0.15 mL of this DPPH-ethanol solution and 0.15 mL of the above-prepared undiluted solution were mixed and stirred (the sample concentration: 500 μM). The reaction was allowed to proceed for 50 minutes at room temperature, and the absorbance at 517 nm wavelength was measured with a UV-VIS spectrophotometer (JASCO V-570). For blanks, a blank solution was prepared using the same volume of ethanol instead of DPPH, and the absorbance of the blank solution was measured via the same reaction condition. For controls, a control solution was prepared using ethanol instead of sample solutions, and the absorbance of the control solution was measured via the same reaction condition.
The DPPH radical scavenging ability was calculated according to the following formula.
Radical Scavenging Ability AntOx(%)=(Acon−Asam)/Acon×100
Acon=The absorbance of the control after being left to stand for 50 minutes. Asam=The absorbance of the sample after being left to stand for 50 minutes.
as §2
BHT-Relative Antioxidant Ability(%)=[AntOx(%)]/[500 μM BHT(%)]×100
On the technique in general: Loss of DPPH colour is used to gauge radical scavenging.

The next data set relates to ddY mice. In words: Acute dermal toxicity study of mimosine cream. It counts as in vivo. The following applies: cream applied to shaved trunk twice a day for three days; skins surveyed at day 5. The procedure:
Vegetable emulsified wax (emulsifying wax, Orangeflower Inc., ingredients: stearyl alcohol, polysorbate 60) and oil (edible olive oil, Ajinomoto Co., Inc.) were completely melted in hot water (50° C.). Warm water (ultrapure water) was added thereto, and the mixture was mixed. An aqueous solution of mimosine or mimosine-introduced peptide was added thereto, and the mixture was completely mixed up. The obtained mixture was stored at 4° C. until use in the animal experiment.
The left and right sides of the trunk of ddY mice (9-week-old, male, 6 mice in each group) were shaved with clippers under anesthesia with ether. […] Any special changes were not observed. […] Therefore, it is thought that mimosine and mimosine-introduced peptide can be utilized in the cosmetic field.

Another data set addresses Mushroom tyrosinase (Agaricus bisporus, UniProt C7FF04). In words: Tyrosinase inhibitory activity with L-DOPA as substrate. It counts as biochemical. The following applies: for IC50: pH 6.8, room temperature, absorbance at 475 nm for 60 seconds, read-out: IC50 for tyrosinase inhibition. The procedure:
Tyrosinase inhibitory activity of a peptide can be evaluated by a known method using tyrosinase and its substrate such as L-dihydroxyphenylalanine (L-DOPA) or L-tyrosine. Specific examples of the evaluation method are described in the Examples below. For example, a peptide whose tyrosinase inhibitory activity should be measured, tyrosinase, and its substrate are dissolved in phosphate buffer, respectively (the peptide and tyrosinase may be dissolved in the same solution). Immediately after mixing the three components, change in absorbance at 475 nm is measured with a spectrophotometer. Since melanin has an absorption maximum at 475 nm, absorbance at 475 nm increases if melanin is synthesized from L-DOPA by tyrosinase. […] Therefore, the tyrosinase inhibitory activity of a peptide can be evaluated based on the change in absorbance.
Mushroom tyrosinase (SIGMA-Aldrich, Missouri, USA)
L-DOPA (SIGMA-Aldrich, Missouri, USA)
50 mM Sodium phosphate buffer (pH 6.8)
Using 50 mM sodium phosphate buffer (pH 6.8), 5 mM L-DOPA solution, mushroom tyrosinase solution (2 units/μL) and 1 mM inhibitor stock solution (×10) were prepared.
Reaction Solution A (25 μL of 5 mM DOPA solution; 75 μL of 50 mM sodium phosphate buffer (pH 6.8)) and Reaction Solution B (25 μL of inhibitor stock solution; 12.5 μL of tyrosinase solution; 112.5 μL of 50 mM sodium phosphate buffer (pH 6.8)) were prepared in two Eppendorf tubes, respectively. Reaction Solutions A and B were mixed just before the measurement, and the absorbance at 475 nm wavelength was measured with a spectrophotometer (V-570, Jasco, Tokyo, Japan). The measurement was carried out for 60 seconds at room temperature, and the absorbance was recorded every 1 second. This operation was repeated 3 times for each sample concentration.
The tyrosinase activity ratio at each inhibitor concentration was calculated based on the control (tyrosinase alone) value, and IC50s for tyrosinase inhibition of the samples were calculated using Ngraph. The fitting formula below was used in the calculation.
y=a−(a−b)/(1+(x/c)̂d (a=Minimum value of y; b=Maximum value of y; c=[…]; d=Variable)

Chain of Mushroom tyrosinase (G1K3P4 entry or part of it): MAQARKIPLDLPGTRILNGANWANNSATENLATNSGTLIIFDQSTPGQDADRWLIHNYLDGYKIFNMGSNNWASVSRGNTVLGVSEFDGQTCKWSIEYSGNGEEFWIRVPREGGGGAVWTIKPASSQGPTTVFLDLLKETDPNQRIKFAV
Chain of Mushroom tyrosinase (C7FF04 1-392): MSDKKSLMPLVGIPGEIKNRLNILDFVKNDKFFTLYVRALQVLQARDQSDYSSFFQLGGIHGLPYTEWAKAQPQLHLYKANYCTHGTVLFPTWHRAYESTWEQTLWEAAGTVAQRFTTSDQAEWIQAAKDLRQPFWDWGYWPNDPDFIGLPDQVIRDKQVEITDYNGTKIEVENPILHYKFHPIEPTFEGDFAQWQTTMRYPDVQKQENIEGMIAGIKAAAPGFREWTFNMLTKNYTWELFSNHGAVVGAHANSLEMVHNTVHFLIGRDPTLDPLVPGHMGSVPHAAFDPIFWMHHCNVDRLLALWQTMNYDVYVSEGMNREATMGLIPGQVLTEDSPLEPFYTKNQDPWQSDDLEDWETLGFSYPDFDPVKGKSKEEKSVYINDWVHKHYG

On to `Cc1cc(C(C)(C)C)c(O)c(C(C)(C)C)c1` [BHT, butylated hydroxytoluene, reference compound], for which the “BHT-Relative Antioxidant Ability (%) β-Carotene Method” value in data set [1] came out at 100.00%. The “BHT-Relative Antioxidant Ability (%) DPPH Method” value in data set [2] was 100.00%.
As to `NC(Cn1ccc(=O)c(O)c1)C(=O)O` (stereo not drawn) [Mimosine], the “Acute dermal toxicity (skin condition)” value in the data set on ddY mice is listed as “neither mimosine nor a mimosine-introduced peptide has an acute dermal toxicity”.
Regarding Leu-Trp-Mim [Sample 9], in data set [1], the “BHT-Relative Antioxidant Ability (%) β-Carotene Method” value was 77.32%. Further, in data set [2], the “BHT-Relative Antioxidant Ability (%) DPPH Method” value is recorded as 41.02%.
For “Leu-Trp-Trp [Sample 6X, reference compound]”, in that order: 28.28% and 73.27%.
By IC50 is commonly meant the midpoint of a concentration-inhibition curve. In the case of Mim-His-Trp [Sample 5], on Mushroom tyrosinase, the “Tyrosinase inhibitory activity compared in words with mimosine or kojic acid” value is listed as “higher than kojic acid” and the IC50 is 3.02 µM. Also, in data set [1], the “Antioxidant ability (β-carotene method) compared in words with BHT or Pro-His-His” value was “at the same level as BHT” and the “BHT-Relative Antioxidant Ability (%) β-Carotene Method” value is 92.66%. Besides, in data set [2], the “Radical scavenging ability (DPPH) compared in words with BHT or Pro-His-His” value is reported as “at the same level as or higher than BHT” and the “BHT-Relative Antioxidant Ability (%) DPPH Method” value was 99.06%.
For the compound “Arg-His-Trp [Sample 5X, reference compound]”, the “BHT-Relative Antioxidant Ability (%) β-Carotene Method” value in data set [1] worked out at 41.37%. For the same compound, the “BHT-Relative Antioxidant Ability (%) DPPH Method” value in data set [2] was determined as 11.26%.
The matching figures for Pro-His-Mim [Sample 10]: 79.55% and 26.45%.
The matching figures for “Tyr-Lys-Tyr [Sample 4X, reference compound]”: 18.88% and 9.55%.
For “Pro-His-Tyr [Sample 3X, reference compound]”, in that order: 33.56% and 9.63%.
Leu-His-Mim [Sample 8]: the “BHT-Relative Antioxidant Ability (%) β-Carotene Method” value in data set [1] stood at 77.79%. Besides, the “BHT-Relative Antioxidant Ability (%) DPPH Method” value in data set [2] amounted to 26.45%.
For “Tyr-Arg-Tyr [Sample 2X, reference compound]”, in that order: 7.78% and 11.31%.
For the compound Mim-Trp-Trp [Sample 6], the IC50 at Mushroom tyrosinase turned out to be 28.2 µM. The “BHT-Relative Antioxidant Ability (%) β-Carotene Method” value in data set [1] worked out at 72.56%. Moreover, in data set [2], the “Radical scavenging ability (DPPH) compared in words with BHT or Pro-His-His” value is listed as “at the same level as or higher than BHT” and the “BHT-Relative Antioxidant Ability (%) DPPH Method” value stood at 117.34%.
Consider “Pro-His-His [Sample 1X, reference compound]”, for which the “BHT-Relative Antioxidant Ability (%) β-Carotene Method” value in data set [1] stood at 63.00%. Also, the “BHT-Relative Antioxidant Ability (%) DPPH Method” value in data set [2] turned out to be 23.01%.
Consider MimLys-Tyr [Sample 4], for which the “BHT-Relative Antioxidant Ability (%) β-Carotene Method” value in data set [1] amounted to 81.96%. In addition, in data set [2], the “BHT-Relative Antioxidant Ability (%) DPPH Method” value was 75.33%.
On to “Leu-His-Trp [Sample 8X, reference compound]”, for which the “BHT-Relative Antioxidant Ability (%) β-Carotene Method” value in data set [1] came to 46.79%. Besides, the “BHT-Relative Antioxidant Ability (%) DPPH Method” value in data set [2] is 41.92%.
In the case of Mim-His-Tyr [Sample 3], the half-maximal inhibitory concentration (IC50) on Mushroom tyrosinase is 8.84 µM. Also, in data set [1], the “Antioxidant ability (β-carotene method) compared in words with BHT or Pro-His-His” value is on record as “at the same level as BHT” and the “BHT-Relative Antioxidant Ability (%) β-Carotene Method” value was 95.80%. Moreover, the “BHT-Relative Antioxidant Ability (%) DPPH Method” value in data set [2] is reported as 84.88%.
Turning to Pro-Mim-His [Sample 7], the “BHT-Relative Antioxidant Ability (%) β-Carotene Method” value in data set [1] was 73.07%. The “BHT-Relative Antioxidant Ability (%) DPPH Method” value in data set [2] was 37.04%.
Mim-Pro-His-His [Sample 1]: the half-maximal inhibitory concentration (IC50) at Mushroom tyrosinase was determined as 16.4 µM. Further, in data set [1], the “Antioxidant ability (β-carotene method) compared in words with BHT or Pro-His-His” value is listed as “at the same level as BHT” and the “BHT-Relative Antioxidant Ability (%) β-Carotene Method” value came out at 93.86%. Further, in data set [2], the “Radical scavenging ability (DPPH) compared in words with BHT or Pro-His-His” value is reported as “at the same level as or higher than BHT” and the “BHT-Relative Antioxidant Ability (%) DPPH Method” value turned out to be 111.67%.
On to Mim-Arg-Tyr [Sample 2], for which the “BHT-Relative Antioxidant Ability (%) β-Carotene Method” value in data set [1] was 66.77%. Moreover, the “BHT-Relative Antioxidant Ability (%) DPPH Method” value in data set [2] stood at 77.89%.

(Values after patent US20110319347A1, “ANTIOXIDANT AGENT” (priority 2009, published 2011).)
